In ChEMBL document CHEMBL1140482, “A novel class of Hsp90 inhibitors isolated by structure-based virtual screening” (Bioorg Med Chem Lett, 2007):

Experiments:
[1] = Inhibition of yeast Hsp90 ATPase expressed in Escherichia coli; set-up: species or system Saccharomyces cerevisiae
[2] = test system: MCF7; assay: Growth inhibition of human MCF7 cells after days by SRB assay; type: functional

Structure (SMILES) | IC50 [1] [µM] | GI50 [2] [µM]
COC1=C2C[C@@H](C)C[C@H](OC)[C@H](O)[C@@H](C)/C=C(\C)[C@H](OC(N)=O)[C@@H](OC)/C=C\C=C(/C)C(=O)NC(=CC1=O)C2=O [GELDANAMYCIN] | 22 | 35.6
COc1ccc(-n2c(/C=C/c3cccc(OC)c3O)nc3ccccc3c2=O)cc1 | 31.8 | 25.4
COc1cc(/C=C/c2nc3ccccc3c(=O)n2-c2ccccc2O)ccc1O | 2.3 | 9.6
O=C(O)c1ccc(-n2c(/C=C/c3ccccc3O)nc3ccccc3c2=O)cc1 | 20 | 27.5
